Assays:
[1] = Pharmacokinetics and brain distribution test; type: in vivo, SD rats; conditions: rats, oral 10 mg/kg
Protocol: Test Animals: healthy adult male SD rats (weight 210-230 g per rat, 12 rats, fasted overnight, fed 4 hours after dosing), provided by SLAC company; preparation of oral solution: 40.14 mg of compound P-53 was weighed and added into a clean tube, and 36.479 mL of 0.5% HPC-H (TCI, E6ZQA) in acetate buffer (PH4.5) was added into the tube. The mixture was then vortexed for 1-2 min. Then the solution was sonicated for 20-25 min and stirred for 20-25 min.
SD rats were administered via intragastric administration (10 mg/kg (10 mL/kg)); samples were collected at 0.5, 1, 2 and 4 hr after dosing (total 4 timepoints), wherein only plasma samples were collected continuously, and brain tissue and cerebrospinal fluid were collected at each time point.
Blood collection: The animal was restrained manually and at each time point collected approximately 150 μL blood via tail vein into a K2EDTA-containing tube. Within 15 minutes, the blood sample was put on wet ice and centrifuged to obtain plasma sample (2000 g, 5 min under 4° C.). […]
Analytical method: the plasma and brain of SD rats were used as matrix, and Glipizide was used as an internal standard. […] The drug concentration was determined by LC-MS/MS method, the pharmacokinetic parameters in the plasma, brain tissue, and cerebrospinal fluid of rats are shown in Table 8: […]

CDK2 = biological target: T1, CDK2 (Homo sapiens, UniProt P24941); assay: Kinase test in vitro (LANCE Ultra, Ulight-4EBP1); type: biochemical
T1 construct: purchased Invitrogen
From the text: (§1) Recombinant CDK1, CCNB1 and CDK9, and CCNT were purchased from BPS; CDK2, CCNA1, CDK4, CCND1 and CDK6, and CCND1 were purchased from Invitrogen; CDK4, CycD3 and CDK6, and CycD3 were purchased from Carna. Adenosine triphosphate (ATP) was purchased from Life tech. Substrate Ulight-4EBP1 and the corresponding detection antibody were purchased from Perkinelmer. LANCE Ultra system from Perkinelmer is used as the detection system.
(§2) In the kinase test, a compound to be tested was 1:3 diluted for 8 gradient points and added into a reaction plate, and then an appropriate amount of recombinase was added. A buffer [50 mM HEPES pH7.5, 10 mM MgCl2, 3 mM MnCl2, 1 mM EGTA, 0.01% Tween-20, 1 mM TCEP] containing ATP, Ulight-4EBP1 premix at a predetermined concentration was subsequently added, and the kinase reaction began at room temperature. A test solution pre-mixed with 10 mM EDTA and detection antibody was added after a suitable reaction time, and then the fluorescence value was read on Tecan infinite pro after reacting for 1 hour at room temperature. The IC50 was calculated using a four-factor model fitting in a XLfit software.

CDK1 = biological target: T2, CDK1 (Homo sapiens, UniProt P06493); assay: Kinase test in vitro (LANCE Ultra, Ulight-4EBP1); type: biochemical
T2 construct: purchased BPS
T2 sequence (P06493 whole entry): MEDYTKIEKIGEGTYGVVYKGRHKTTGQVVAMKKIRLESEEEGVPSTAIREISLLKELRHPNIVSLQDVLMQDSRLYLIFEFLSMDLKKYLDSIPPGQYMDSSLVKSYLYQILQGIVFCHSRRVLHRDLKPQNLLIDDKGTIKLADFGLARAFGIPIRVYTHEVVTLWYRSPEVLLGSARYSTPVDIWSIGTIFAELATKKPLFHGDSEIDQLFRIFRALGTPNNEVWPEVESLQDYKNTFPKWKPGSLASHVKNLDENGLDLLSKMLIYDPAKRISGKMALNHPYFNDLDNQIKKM
T2 sequence (P14635 whole entry partner): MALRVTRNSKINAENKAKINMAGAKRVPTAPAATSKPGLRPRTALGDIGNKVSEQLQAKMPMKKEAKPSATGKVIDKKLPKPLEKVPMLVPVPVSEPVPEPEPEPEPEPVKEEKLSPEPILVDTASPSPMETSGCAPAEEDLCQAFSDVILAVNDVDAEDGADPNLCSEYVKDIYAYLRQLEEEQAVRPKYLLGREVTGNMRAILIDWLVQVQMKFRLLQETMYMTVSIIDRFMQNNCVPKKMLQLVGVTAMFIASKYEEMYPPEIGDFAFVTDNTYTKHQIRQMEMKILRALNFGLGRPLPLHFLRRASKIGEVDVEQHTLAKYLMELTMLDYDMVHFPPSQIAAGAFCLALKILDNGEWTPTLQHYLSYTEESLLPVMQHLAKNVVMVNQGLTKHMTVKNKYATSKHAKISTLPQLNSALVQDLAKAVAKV
From the text: as §1, §2

CDK6 = biological target: T3, CDK6 (Homo sapiens, UniProt Q00534); assay: Kinase test in vitro (LANCE Ultra, Ulight-4EBP1); type: biochemical
T3 construct: purchased Invitrogen or Carna
T3 sequence (Q00534 whole entry): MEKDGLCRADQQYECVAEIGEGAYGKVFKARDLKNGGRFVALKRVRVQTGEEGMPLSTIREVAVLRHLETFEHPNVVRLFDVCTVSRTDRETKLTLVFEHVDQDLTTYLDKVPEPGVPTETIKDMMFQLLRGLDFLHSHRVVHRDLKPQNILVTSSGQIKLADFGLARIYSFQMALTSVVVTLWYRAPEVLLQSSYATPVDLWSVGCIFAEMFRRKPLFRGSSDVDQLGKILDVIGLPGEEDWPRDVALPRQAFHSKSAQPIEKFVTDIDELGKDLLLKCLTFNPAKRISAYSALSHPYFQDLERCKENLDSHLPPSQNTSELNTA
T3 sequence (P24385 whole entry partner): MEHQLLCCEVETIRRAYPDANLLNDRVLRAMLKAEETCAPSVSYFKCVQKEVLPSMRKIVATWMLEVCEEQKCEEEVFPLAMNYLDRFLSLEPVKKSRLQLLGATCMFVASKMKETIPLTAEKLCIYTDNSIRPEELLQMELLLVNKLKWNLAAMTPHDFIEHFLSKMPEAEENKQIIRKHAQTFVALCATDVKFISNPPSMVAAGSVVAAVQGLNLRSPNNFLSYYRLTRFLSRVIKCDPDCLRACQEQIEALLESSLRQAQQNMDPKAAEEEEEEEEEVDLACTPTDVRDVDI
From the text: as §1, §2

CDK4 = biological target: T4, CDK4 (Homo sapiens, UniProt P11802); assay: Kinase test in vitro (LANCE Ultra, Ulight-4EBP1); type: biochemical
T4 construct: purchased Invitrogen or Carna
T4 sequence (P11802 whole entry): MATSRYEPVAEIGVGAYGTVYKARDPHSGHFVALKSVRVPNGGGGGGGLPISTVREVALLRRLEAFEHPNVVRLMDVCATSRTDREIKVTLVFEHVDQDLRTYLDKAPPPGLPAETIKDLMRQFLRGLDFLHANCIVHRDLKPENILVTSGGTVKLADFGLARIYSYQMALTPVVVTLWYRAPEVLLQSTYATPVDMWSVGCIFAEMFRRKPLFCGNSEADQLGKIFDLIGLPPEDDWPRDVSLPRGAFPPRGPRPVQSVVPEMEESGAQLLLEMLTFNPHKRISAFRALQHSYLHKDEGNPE
T4 sequence (P24385 whole entry partner): as the sequence (P24385 whole entry partner) above
From the text: as §1, §2

- brain permeability (in words) [1]: can cross the blood-brain barrier
- IC50 (CDK2): 8.75 µM
- inhibitory activity against CDK2 (in words) (CDK2): weak inhibitory activity
- IC50 (CDK1): 6.09 µM
- inhibitory activity against CDK1 (in words) (CDK1): weak inhibitory activity
- IC50 (CDK6): 0.057 µM
- inhibitory activity against CDK6 (in words) (CDK6): strong inhibitory activity
- IC50 (CDK4): 0.01 µM
- inhibitory activity against CDK4 (in words) (CDK4): strong inhibitory activity
SMILES: CCN1CCN(Cc2ccc(Nc3ncc4c(n3)-c3c(nc(C5CC5)n3C(C)C)C4)nc2)CC1 [Free base of compound of formula X, 2-cyclopropyl-N-(5-((4-ethylpiperazin-1-yl)methyl)pyridin-2-yl)-3-isopropyl-3,8-dihydroimidazo[4′,5′,4,5]cyclopenta[1,2-d]pyrimidin-5-amine]

From patent publication US20210214358A1, “CDK4/6 INHIBITOR AND PHARMACEUTICALLY ACCEPTABLE SALT AND POLYMORPH THEREOF AND USE THEREOF” (SHANGHAI HAIYAN PHARMACEUTICAL TECHNOLOGY CO., LTD., priority 2018, published 2021)
